Laboratory results published in PubChem BioAssay (NCI).
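Five concentrations, 48 hours, 96-well plates. GI50 is the concentration that inhibits growth by half. TGI: concentration producing complete growth inhibition.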

How the values were obtained:
Assay in all cases: NCI-60 cell line screen, 48 h
ACHN renal = system: ACHN renal
MOLT-4 leukemia = system: MOLT-4 leukemia
A498 renal = system: A498 renal
SN12C renal = system: SN12C renal
MDA-MB-231 breast = system: MDA-MB-231 breast
KM12 colon = system: KM12 colon
OVCAR-4 ovarian = system: OVCAR-4 ovarian
SK-OV-3 ovarian = system: SK-OV-3 ovarian
A549 NSCLC = system: A549 NSCLC
SK-MEL-28 melanoma = system: SK-MEL-28 melanoma
IGROV1 ovarian = system: IGROV1 ovarian
SF-539 CNS = system: SF-539 CNS
UACC-257 melanoma = system: UACC-257 melanoma
SW-620 colon = system: SW-620 colon
OVCAR-5 ovarian = system: OVCAR-5 ovarian
CCRF-CEM leukemia = system: CCRF-CEM leukemia
HOP-92 NSCLC = system: HOP-92 NSCLC
MDA-MB-435 = system: MDA-MB-435
UACC-62 melanoma = system: UACC-62 melanoma
HS 578T breast = system: HS 578T breast
SK-MEL-2 melanoma = system: SK-MEL-2 melanoma
TK-10 renal = system: TK-10 renal
SNB-75 CNS = system: SNB-75 CNS
PC-3 prostate = system: PC-3 prostate
NCI-H460 lung = system: NCI-H460 lung
HL-60(TB) leukemia = system: HL-60(TB) leukemia
UO-31 renal = system: UO-31 renal
SF-268 CNS = system: SF-268 CNS
U251 CNS = system: U251 CNS
RPMI-8226 leukemia = system: RPMI-8226 leukemia
SF-295 CNS = system: SF-295 CNS
SK-MEL-5 melanoma = system: SK-MEL-5 melanoma
RXF 393 renal = system: RXF 393 renal
HT29 colon = system: HT29 colon
NCI-H522 lung = system: NCI-H522 lung
COLO 205 colon = system: COLO 205 colon
SNB-19 CNS = system: SNB-19 CNS
SR leukemia = system: SR leukemia
CAKI-1 renal = system: CAKI-1 renal
MALME-3M melanoma = system: MALME-3M melanoma

COc1ccc(/C=N/Nc2ccnc3cc(Cl)ccc23)cc1Cl was tested, and the GI50 (ACHN renal) was 1950 nM, the TGI (ACHN renal) was 3.42 µM and the GI50 (MOLT-4 leukemia) was 2200 nM. The TGI (MOLT-4 leukemia) was 5.35 µM, the GI50 (A498 renal) was 1720 nM and the TGI (A498 renal) was 3.22 µM. It also gave a GI50 (SN12C renal) of 1750 nM, a TGI (SN12C renal) of 3.44 µM and a GI50 (MDA-MB-231 breast) of 1930 nM. For the same molecule, the TGI (MDA-MB-231 breast) was 3.55 µM, the GI50 (KM12 colon) was 2080 nM and the TGI (KM12 colon) was 4.32 µM. The GI50 (OVCAR-4 ovarian) was 1830 nM, the TGI (OVCAR-4 ovarian) was 3.56 µM and the GI50 (SK-OV-3 ovarian) was 1820 nM. For the same molecule, the TGI (SK-OV-3 ovarian) was 3.27 µM, the GI50 (A549 NSCLC) was 1770 nM and the TGI (A549 NSCLC) was 3.57 µM. It also gave a GI50 (SK-MEL-28 melanoma) of 1750 nM, a TGI (SK-MEL-28 melanoma) of 3.21 µM and a GI50 (IGROV1 ovarian) of 1910 nM. It also gave a TGI (IGROV1 ovarian) of 3.71 µM, a GI50 (SF-539 CNS) of 1800 nM and a TGI (SF-539 CNS) of 3.26 µM. For the same molecule, the GI50 (UACC-257 melanoma) was 1690 nM, the TGI (UACC-257 melanoma) was 3.29 µM and the GI50 (SW-620 colon) was 1900 nM. It also gave a TGI (SW-620 colon) of 3.76 µM, a GI50 (OVCAR-5 ovarian) of 1850 nM and a TGI (OVCAR-5 ovarian) of 3.49 µM. The GI50 (CCRF-CEM leukemia) was 2140 nM, the TGI (CCRF-CEM leukemia) was 5.93 µM and the GI50 (HOP-92 NSCLC) was 1380 nM. It also gave a TGI (HOP-92 NSCLC) of 2950 nM, a GI50 (MDA-MB-435) of 1790 nM and a TGI (MDA-MB-435) of 3.39 µM. The GI50 (UACC-62 melanoma) was 1760 nM, the TGI (UACC-62 melanoma) was 3.27 µM and the GI50 (HS 578T breast) was 1990 nM. For the same molecule, the TGI (HS 578T breast) was 4.28 µM, the GI50 (SK-MEL-2 melanoma) was 1790 nM and the TGI (SK-MEL-2 melanoma) was 3.33 µM. For the same molecule, the GI50 (TK-10 renal) was 1740 nM, the TGI (TK-10 renal) was 3.12 µM and the GI50 (SNB-75 CNS) was 1550 nM. The TGI (SNB-75 CNS) was 3.06 µM, the GI50 (PC-3 prostate) was 1640 nM and the TGI (PC-3 prostate) was 3.12 µM. The GI50 (NCI-H460 lung) was 2040 nM, the TGI (NCI-H460 lung) was 4.03 µM and the GI50 (HL-60(TB) leukemia) was 1960 nM. It also gave a TGI (HL-60(TB) leukemia) of 4.79 µM, a GI50 (UO-31 renal) of 1680 nM and a TGI (UO-31 renal) of 3.1 µM. It also gave a GI50 (SF-268 CNS) of 1900 nM, a TGI (SF-268 CNS) of 3.69 µM and a GI50 (U251 CNS) of 1740 nM. The TGI (U251 CNS) was 3.37 µM, the GI50 (RPMI-8226 leukemia) was 2200 nM and the TGI (RPMI-8226 leukemia) was 5.24 µM. It also gave a GI50 (SF-295 CNS) of 1790 nM, a TGI (SF-295 CNS) of 3.36 µM and a GI50 (SK-MEL-5 melanoma) of 1770 nM. It also gave a TGI (SK-MEL-5 melanoma) of 3.21 µM, a GI50 (RXF 393 renal) of 1750 nM and a TGI (RXF 393 renal) of 3.21 µM. It also gave a GI50 (HT29 colon) of 1530 nM, a TGI (HT29 colon) of 3.01 µM and a GI50 (NCI-H522 lung) of 1690 nM. For the same molecule, the TGI (NCI-H522 lung) was 3.3 µM, the GI50 (COLO 205 colon) was 1820 nM and the TGI (COLO 205 colon) was 3.37 µM. It also gave a GI50 (SNB-19 CNS) of 1930 nM, a TGI (SNB-19 CNS) of 3.73 µM and a GI50 (SR leukemia) of 707 nM. The TGI (SR leukemia) was 5.51 µM, the GI50 (CAKI-1 renal) was 1680 nM and the TGI (CAKI-1 renal) was 3.1 µM. For the same molecule, the GI50 (MALME-3M melanoma) was 1900 nM and the TGI (MALME-3M melanoma) was 3.54 µM.
